“Also recorded” adds a separate entry of the source.
Key:
[1] = system: Succinate Dehydrogenase B (SDHB); assay: Western blot of Succinate Dehydrogenase subunit B in mitochondrial preparations; type: cell-based; settings: mitochondrial preparations of cancer cells
Method: The above blots were stripped by incubating for 30 minutes with methanol, followed by two 10 minute washes with TBS-T, then 30 minutes of incubation with Stripping buffer at 50 deg C., and followed by two washes with 100 ml or more of TBS-T for 30′ each. The blots were scanned in laser scanner to check for complete stripping. The blots were activated with methanol for 5 seconds, washed with water for 5 minutes, and TBST for 15 minutes. The blots were blocked for 1 hour with 5% blocking reagent in TBS-T at room temperature and then washed 3 times with TBS-T (1×-15′; 2×5′ each) and probed with the primary antibody for PKM2, SDHB or SDHC in 5% BSA in TBS-T by incubation overnight at 4 deg C. with gentle shaking. The primary antibody for SDHC (ABNOVA H00006391-M02; antimouse) was at 1:500 dilution. The primary antibody for SDHB was from Abcam ab4714-200; antimouse; at 1:1000 dilution. The primary antibody for Pyruvate Kinase M2 (PKM2) was from Novus Biologicals H00005315-DOIP; antirabbit; at 1:500 dilution. After incubation with primary antibodies, the membranes were washed 3 times with TBS-T (1×-15′; 2×5′ each) and probed with the secondary antibody (SDHB & C antimouse; and PKM2 antirabbit; 1:10,000 dilution) for 1 hon the orbital tilting shaker at room temperature. […]

SCC cells = settings: 100 μM Q10; 6 and/or 24 hr

## COC1=C(OC)C(=O)C(C/C=C(\C)CC/C=C(\C)CC/C=C(\C)CC/C=C(\C)CC/C=C(\C)CC/C=C(\C)CC/C=C(\C)CC/C=C(\C)CC/C=C(\C)CCC=C(C)C)=C(C)C1=O [Q10, Coenzyme Q10]
[1]
  SDH protein levels in the mitochondrion: increase SDH protein levels
SCC cells
  Response (direction of protein spot change): Increase; also recorded: hr, decrease

From US20210002725A1, “METHODS FOR THE DIAGNOSIS OF METABOLIC DISORDERS USING EPIMETABOLIC SHIFTERS, MULTIDIMENSIONAL INTRACELLULAR MOLECULES, OR ENVIRONMENTAL INFLUENCES” (Berg LLC, priority 2009, published 2021)
